As a reminder, the melting point is the temperature of the solid-liquid transition.

Molecule `Nc1ccccc1-c1ccc(C(O)CCC(=O)O)cc1` (stereo not given) had a melting point of 102 to 103 °C.

In the case of `O=c1c([N+](=O)[O-])c[nH]n1-c1c(Cl)cc(C(F)(F)F)cc1Cl`, the melting point fell in the range of 100 to 108 °C.

Consider `CCOC(=O)N(Cn1cc(Cl)cnc1=O)c1ccccc1`, for which the melting point came to 174 °C.

Consider `CCOc1ccc([N+](=O)[O-])cc1I`, for which the melting point lay within 81 to 83 °C.

On to `CC1(C)CCCC(C)(C)N1OCc1ccccc1C(=O)ON1C(=O)CCC1=O`, for which the melting point amounted to 145 °C.

`CCOC(=O)C(=CNn1cnnc1)C(=O)c1cc(F)c(Cl)nc1Cl` had a melting point of 89 to 95 °C.

`CN(C)N=C(c1ccccc1)c1cc(C(C)(C)C)c(O)c(C(C)(C)C)c1`: the melting point was 111 to 124 °C.

`COC(=O)C(Cc1ccc(Cl)cc1Cl)c1c(Cl)cccc1Cl` (stereo not given) returned a melting point of 115 °C.

As for `CC12CCC3C(CCC4=CC(=CF)CCC43CS)C1CCC2=O` (stereo not given), the melting point was 118 to 120 °C.

As to `CCOC(=O)/C=C/c1cnc(-c2ccc(O)c(C34CC5CC(CC(C5)C3)C4)c2)cn1`, the melting point is 212 to 215 °C.

As to `Cc1nc(C)c(Cl)c(NCc2nccc(SCCCN3CCN(CC4CN(Cc5ccncc5)C(=O)O4)CC3)c2C)n1` (stereo not given), the melting point lay within 123 to 126 °C.

As for `CCCCCCCCc1ccc(OCC(O)Cn2ccc3cc(C(N)=O)ccc32)cc1` (stereo not given), the melting point was 118 to 119 °C.

`Cc1c(N)cc2c(c1C)OC(C)(C)C2=O` gave a melting point of 149 to 150 °C.

`CCCc1c(C(=O)C(C)C)c2ccc(C(N)=O)cc2n1Cc1ccccc1[N+](=O)[O-]` came in with a melting point of 181 to 182 °C.

Molecule `CCOc1c(C)c(C)c2c(c1C)CCC(C)(COc1ccc(N)cc1)O2` (stereo not given) had a melting point of 121 to 123 °C.

`COC(=O)c1cc(OC)c(Br)cc1Cl`: the melting point is 78 to 79 °C.

With `CCCCC1=Nc2ccccc2C(=O)C1`, the melting point was 140 °C.

On to `O=C(O)CP(=O)(c1ccccc1)c1ccccc1`, for which the melting point lay in the range of 143 to 146 °C.

In the case of `CCc1ccc(C(=O)C(=O)O)[nH]1`, the melting point is 126 to 128 °C.

`C#Cc1ccc([C@H]2CC[C@H](CCCCC)CC2)nn1` gave a melting point of 114 to 116 °C.

Regarding `CCn1ncnc1COc1nn2c(-c3ccc(F)cc3)nncc2c1C(C)(C)C`, the melting point was determined as 190 °C.

As to `Cc1ccc2c(c1)C(=O)N(CC(=O)N1c3ccccc3N(Cc3ccccc3)C(=O)[C@H]3CCC[C@H]31)C2=O` (relative stereo), the melting point fell in the range of 237 to 238 °C.

Consider `COc1ccc(CCc2ccc(C(F)(F)F)cc2)cc1`, for which the melting point amounted to 80 °C.

`COC(=O)CC1c2ccccc2C(=O)N1c1ccc(Cl)cn1` (stereo not given): the melting point lay within 110 to 111 °C.

Consider `CC(=O)c1ccc(C=C(C)c2ccc3c(c2)C(C)(C)CCO3)cc1`, for which the melting point fell in the range of 109 to 110 °C.

As to `CC(C)(C)C(=O)Nc1ccccc1C(c1ccc(O)cc1)c1ccc(O)cc1`, the melting point fell in the range of 259 to 262 °C.

The molecule `COC(=O)c1ccc(CSc2c(C(N)=O)sc3ccc(OC)cc23)cc1` registered a melting point of 150 to 152 °C.

`CC1CN(c2cc3ccccc3c(=O)[nH]2)CC(C)N1` (stereo not given) returned a melting point of 208 to 210 °C.

Turning to `CCCCCCCCCc1cc(-c2ccccc2)c(OCC(=O)O)c(-c2ccccc2)c1`, the melting point was 63 to 65 °C.

`CCCc1c(SCCCOc2ccc3c(=O)cc(C(=O)OCC)oc3c2CCC)ccc2c(=O)cc(C(=O)OCC)[nH]c12`: the melting point was 168 to 170 °C.

For `CCOC(=O)C=Cc1ccc(OC(C)C)c(OC)c1`, the melting point lay in the range of 103 to 104 °C.

Take `CCCOCCc1ccc(-c2ccc3c(c2)C=C(C(=O)Nc2ccc(CN(C)C4CCOCC4)cc2)CCS3(=O)=O)c(F)c1`: the melting point is 172 to 174 °C.

For `CC1(C)C(=O)Nc2cc3[nH]c(-c4cnsn4)nc3cc21`, the melting point is over 300 °C.

`FC(F)C(F)(F)Sc1nc(-c2ccccc2)c(-c2cccnc2)[nH]1` came in with a melting point of 153 to 154 °C.

As to `O=C(CCc1ccccc1)c1c(O)c2cccnc2n(-c2ccccc2)c1=O`, the melting point was in the range of 233 to 234 °C.
